In ChEMBL document CHEMBL3227937, “2',3'-Bis(2-chloroethyl)aminophosphoryl-3'-amino-3'-deoxyadenosine: a cyclic nucleotide with antitumor activity” (1979):
≈ marks a conversion by molar mass, not a printed value.

Experiments:
[1] = tested on: KB; test: Cytotoxicity against human KB cells; assay type: functional
[2] = Anticancer activity against mouse LE1210 cells allografted in mouse at 0.625 mg/kg, ip relative to control; assay type: functional; conditions: route intraperitoneal

| SMILES | ED50 [1] [µg/mL] | T/C [2] [%] | EC50 ([1]; Homo sapiens, KB, read-out: ED50 (the source's name)) [µg/mL] |
| --- | --- | --- | --- |
| Nc1ncnc2c1ncn2[C@@H]1O[C@H](CO)[C@H]2NP(=O)(N(CCCl)CCCl)O[C@H]21 (single isomer, unassigned; isomer 2) | 0.66 (≈ 1.46 µM) |  |  |
| CN(C)c1ncnc2c1ncn2[C@@H]1O[C@H](CO)[C@H]2NP(=O)(N(CCCl)CCCl)O[C@H]21 (mixture of isomers) |  | 101 |  |
| Nc1ncnc2c1ncn2[C@@H]1O[C@H](CO)[C@H]2NP(=O)(N(CCCl)CCCl)O[C@H]21 (single isomer, unassigned; isomer 1) |  | 101 | 1.1 (≈ 2.43 µM) |
